Measured values: paper PMC12864978, “Covalent modification of a glutamic acid inspired by HaloTag technology” (Nature Communications, 2026)
“Also recorded” adds a separate entry of the source.

Assays:
PDEδ in Jurkat cells = biological target: T1, PDEδ in Jurkat cells (Homo sapiens, UniProt O43924); test: CETSA in intact cells (in-cell CETSA); type: cell-based; conditions: 15 min at 37 °C
T1 construct: host or cells: Jurkat
Experimental: Cells were collected and resuspended in cold PBS and further washed thrice in cold PBS. […] Afterwards, NP40 alternative was added to a final concentration of 0.4% (v/v), and cells were lysed by five consecutive freeze/thaw cycles. […] Supernatants were transferred to new tubes, and equal volumes of each sample were loaded on an SDS-PAGE gel and subjected to immunoblot analysis.

[1] = tested on: Rheb localisation in PA-TU-8902 cells; test: Immunofluorescence staining of Rheb; type: cell-based, human; conditions: 5 µM, overnight
Experimental: Immunostaining: compound-treated PA-TU-8902 cells were washed once with cold PBS, fixed with 3.7% paraformaldehyde in PBS by incubation at room temperature for 10 min and permeabilised with 0.3% Triton X-100 in PBS by incubation at room temperature for 15 min. […] After washing with PBS-T three times, PBS-incubated cells were imaged with Observer Z1 (Carl Zeiss, Germany) with a 63× oil objective.

HAP1 PDEδ knockout cells = test: Relative growth after 72 h; type: cell-based; conditions: 0 - 50 µM
Experimental: Real-time cell analysis (RTCA) was conducted using an Incucyte S3 live-cell analysis system (Sartorius AG, Germany). […] Following attachment overnight, the medium was replaced with fresh medium containing test compounds, with all conditions adjusted to contain 0.5% DMSO. […] Phase-contrast images (2 images per well) were automatically captured at 2-h intervals until control wells (DMSO-treated) reached full confluency. Cell growth was quantified using the instrument’s integrated Basic Analyser module by applying a confluence mask to calculate the percentage of phase area confluence. […] Dose-response curves were generated and fitted via four-parameter variable slope nonlinear regression to determine cellular IC₅₀ values.

[2] = tested on: panel of human cell lines; test: Cytotoxicity screening in a panel of human cell lines; type: cell-based; conditions: concentrations up to 25 µM
Experimental: Real-time cell analysis (RTCA) was conducted using an Incucyte S3 live-cell analysis system (Sartorius AG, Germany). Adherent cell lines were seeded at 5 × 10³ cells per well in 96-well plates containing 100 µl of culture medium and incubated overnight at 37 °C with 5% CO₂. Following attachment overnight, the medium was replaced with fresh medium containing test compounds, with all conditions adjusted to contain 0.5% DMSO. […] Phase-contrast images (2 images per well) were automatically captured at 2-h intervals until control wells (DMSO-treated) reached full confluency. Cell growth was quantified using the instrument’s integrated Basic Analyser module by applying a confluence mask to calculate the percentage of phase area confluence. For dose-response assessment, confluence values at 72 h post-treatment were normalised to the DMSO control and analysed using GraphPad Prism 9.5.1 (GraphPad Software, USA). Dose-response curves were generated and fitted via four-parameter variable slope nonlinear regression to determine cellular IC₅₀ values.
representative of biological replicates n = 3.
comet images for each condition were shown.
time live-cell imaging by Incucyte.
Source data are provided as […]

Mouse plasma stability = type: in vitro ADME; conditions: 50% mouse plasma in PBS, within an hour
Source text: (§1) plotted as mean ± standard deviation, representative of 3 technical replicates ( N = 3). Unpaired, two-
(§2) Data were plotted as mean ± standard deviation, representative of 3 technical replicates in the presence

[3] = Mouse liver microsomal stability; type: in vitro ADME
Source text: as §1, §2

DNA in Jurkat cells = test: Comet assay (DNA alkylation); conditions: 10 µM
Experimental: assay.5 % DNA in tail was estimated OpenComet (v1.3) plugin in Image J. Jurkat cells were treated
30 min before subjecting to single -cell gel electrophoresis. Data were plotted as mean ± s.d.,

PDEδ [4] = biological target: T2, PDEδ (Homo sapiens, UniProt O43924); test: In-cell covalent modification of PDEδ (immunoblot); conditions: 2 h
[5] = biological target: PDEδ in Jurkat cell lysates (Homo sapiens, UniProt O43924); test: In-lysate covalent modification of PDEδ (anti-PDEδ immunoblot band shift)
Source text: Relative band intensities were quantified using Image Lab (BIO-RAD).

PDEδ [6] = biological target: T2, PDEδ; test: Differential scanning fluorimetry (NanoDSF); type: binding; design: His tag; made in house; host or cells: Escherichia coli Rosetta (BL21DE3), pET plasmids
Experimental: Afterwards, a sample of the solution was cooled down to room temperature and was loaded onto a capillary, followed by the measurement of fluorescence intensities at 350 nm and 330 nm from 20 °C up to 90 °C (with a rate of increment of 1 °C/min) using the Prometheus Panta device (NanoTemper® Technologies, DE).

Sequence of PDEδ in Jurkat cell lysates (O43924 whole entry): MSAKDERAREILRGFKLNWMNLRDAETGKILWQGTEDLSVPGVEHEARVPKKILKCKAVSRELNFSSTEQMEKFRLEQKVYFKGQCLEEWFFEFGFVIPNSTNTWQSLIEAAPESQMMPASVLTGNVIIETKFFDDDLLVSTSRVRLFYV
T2 sequence (O43924 whole entry): as above
T1 sequence (O43924 whole entry): as above

With `Cc1ccc(-n2nc3c(=O)n(CCCCS(=O)(=O)N(CCc4cccc(CCBr)c4)CC4CCNCC4)nc(C)c3c2C)cc1` [6a] the ΔTm at 10 µM (PDEδ in Jurkat cells) was 9.3 ± 0.2 °C, the “cellular Rheb distribution” value [1] was “visible and sustained redistribution of Rheb to endomembranes” and the “growth impairment of HAP1 PDEδ knockout cells compared to HAP1 wild type cells” value (HAP1 PDEδ knockout cells) was “less pronounced”. The general cytotoxicity [2] was “no general toxicity; also recorded: not observed”, the “stability in mouse plasma” value (Mouse plasma stability) was “stable in mouse plasma” and the CLhep predicted ([3]; liver microsomes, translated from intrinsic clearance, mouse, read-out: in vivo clearance (simplified well-stirred model) (converted)) was roughly 66.7 mL/min/kg. For the same compound, the “microsomal stability in the absence of co-factor NADPH” value ([3]; mouse liver microsomes) was “metabolically stable”, the microsomal CLint ([3]; mouse liver microsomes 0.5 mg/ml, + NADPH, read-out: intrinsic clearance) was 117 µL/min/mg and the “time to almost complete metabolism” value ([3]; mouse, liver microsomes, + NADPH) was no more than 50 min. The half-life ([3]; mouse, liver microsomes, + NADPH, read-out: half-life T1/2 in mouse liver microsomes) was 11.8 min, the “off-target effects such as DNA alkylation (Comet assay)” value (DNA in Jurkat cells) was “not observed” and the “in-cell covalent modification of PDEδ” value (PDEδ [4]) was “covalent binding of DeltaTag (6a) to PDEδ within 2 h”. For the same compound, the “in-lysate covalent modification of PDEδ on anti-PDEδ immunoblot” value ([5]; 10 µM for 2 h) was “upward shift of the band indicates covalent binding”, the “Estimated % PDEδ labelling” value ([5]; 10 µM, 15 min) was 33% and the “Estimated % PDEδ labelling” value ([5]; 10 µM, 15 min, listed as DeltaTag) was “approximately 33%”. For the same compound, the “Estimated % PDEδ labelling” value ([5]; 10 µM, 30 min) was 55%, the “Estimated % PDEδ labelling” value ([5]; 10 µM, 60 min) was 60% and the “time to estimated full labelling of PDEδ” value ([5]; 50 µg cell lysates, 10 µM) was no more than 2 h. For the same compound, the “ΔTm (NanoDSF)” value (PDEδ [6]; 2 h incubation) was 13.5 ± 0.2 °C and the ΔTm at 60 µM (PDEδ [6]; PDEδ 20 µM, compound 60 µM, mean ± s.d., Fig. 2e, read-out: melting temperature shift ΔTm (NanoDSF)) was 15.5 ± 1 °C.
